Results published in patent publication US20240424118A1, “VECTORS TARGETING BETA-D-N-ACETYLGLUCOSAMINIDASE” (CENTRE NATIONAL DE LA RECHERCHE SCIENTIFIQUE, priority 2021, published 2024).

Legend:
[1] = test system: MDA-MB-231 tumor line; assay: Antiproliferative activity (cell viability) on MDA-MB-231 tumor line, with or without β-N-acetylglucosaminidase; format: cell-based, human; settings: MDA-MB-231 cells, 72 hours of incubation
Protocol: (§1) The curves with the circles correspond to MMAE, the curves with the squares correspond to vector 80 and the curves with the triangles correspond to vector 80 in the presence of GlcNase.
(§2) The antiproliferative activity of vector 80 was evaluated on human KB and MDA-MB-231 tumor lines and compared to that of MMAE. To do this, compound 80 was placed in the culture medium in the absence or presence of β-N-acetylglucosaminidase and cell viability was measured after 72 hours of incubation (FIG. 1).

[2] = test system: MDA-MB-231 orthotopic tumors; assay: Therapeutic efficacy on MDA-MB-231 orthotopic triple negative breast tumor model in mice; format: in vivo
Protocol: The vectors were administered on days 21, 35 and 49. Each point corresponds to the average of the tumor volumes±SEM. The curves with the triangles correspond to the vehicle and the curves with the squares correspond to the vector 80.
The therapeutic efficacy of vector 80 was evaluated in mice, on a triple negative breast tumor model of the MDA-MB-231 type (FIG. 2). Compound 80 was administered three times, with a period of 14 days, intravenously in the caudal vein, at a dose of 4 mg·kg^−1.

[3] = test system: KB tumor line; assay: Antiproliferative activity (cell viability) on KB tumor line, with or without β-N-acetylglucosaminidase; format: cell-based, human; settings: KB cells, 72 hours of incubation
Protocol: as §1, §2

CC[C@H](C)[C@@H]([C@@H](CC(=O)N1CCC[C@H]1[C@H](OC)[C@@H](C)C(=O)N[C@H](C)[C@@H](O)c1ccccc1)OC)N(C)C(=O)[C@@H](NC(=O)[C@H](C(C)C)N(C)C(=O)OC(Cc1cn(CCOCCOCCOCCOCCOCCOCCOCCOCCOCCOCCNC(=O)CCCCCN2C(=O)C=CC2=O)nn1)c1ccc(O[C@@H]2OC(CO)[C@@H](O)[C@H](O)C2NC(C)=O)c([N+](=O)[O-])c1)C(C)C (stereo partly shown) [vector 80]
cytotoxicity in the absence versus presence of β-N-acetylglucosaminidase [1]: identical cytotoxicity
therapeutic activity relative to the control group ([2]; 4 mg·kg^−1 intravenously, days 21, 35 and 49): significant therapeutic activity
mice with total and lasting regression of the tumor ([2]; end of the experiment (day 63), 4 mg·kg^−1 intravenously): 3/6
mice that no longer had detectable tumors ([2]; from day 35, after the first injection, 4 mg·kg^−1 intravenously): 4/6
reduction in the initial tumor size (initial response to treatment) ([2]; initial response, before regrowth at day 42, 4 mg·kg^−1 intravenously): 90%
mortality (tolerance) ([2]; until end of protocol (day 63), 4 mg·kg^−1 intravenously, three administrations): no mortality
cytotoxicity in the absence versus presence of β-N-acetylglucosaminidase [3]: identical cytotoxicity
